Assay results reported in US20230391772A1, “METHODS AND COMPOSITIONS FOR TARGETED PROTEIN DEGRADATION” (Ranok Therapeutics (Hangzhou) Co. Ltd., priority 2020, published 2023).

Assays:
KRAS(G12C) [1] = target: T1, KRAS(G12C) (Homo sapiens, UniProt P01116, G12C); test: KRAS(G12C) Western blot protein degradation assay in LU65A cells; assay type: cell-based; set-up: LU65A human lung cancer cell line, which expresses KRAS(G12C); host or cells: LU65A; settings: 6 hr
Procedure: The following cancer cell lines were employed: BT-474 human breast carcinoma (ATCC, #HTB-20); MIA PaCa-2 human pancreatic carcinoma [2 copies KRAS(G12C)](ATCC, #CRL-1420); NCI-H23 human non-small cell lung cancer [1 copy KRAS(G12C)](ATCC, #CRL-5800); NCI-H358 human non-small cell lung cancer [1 copy KRAS(G12C)](ATCC, #CRL-5807); LU65A human lung carcinoma (Pharmaron, Beijing, China). Cell lines were cultured essentially according to ATCC and Pharmaron recommendations.
KRAS(G12C) Western Blot Protein Degradation Assay
The MIA PaCa-2 human pancreatic carcinoma cell line and LU65A human lung cancer cell line, which expresses KRAS(G12C), were seeded in 6- or 12-well tissue culture plates, and after 1 hr, test compounds were added at various concentrations and incubated at 37° C./5% CO2 for 48 hr (MIA Paca-2) and 6 hr (LU65A) respectively. Cells were then washed with cold PBS, aspirated and cold RIPA buffer containing a protease/phosphatase inhibitor cocktail was added to lyse cells. After centrifugation, the total protein concentrations of cell lysates were determined using the BCA protein assay. Samples were normalized for equivalent protein concentrations, 5×SDS-PAGE loading buffer added and denatured at 100° C. for 10 min. 20 μl of each sample/well was loaded on a SDS-PAGE gel and electrophoresed for 20 min at 80 V, then 120 V for 1.5 hr. Gels were then electroblotted to nitrocellulose membranes using a wet-transfer method at 250 mA for 2.5 hr. Membranes were incubated with blocking buffer for 1 hr and washed 3 times with TBST for 5 min. Membranes were then incubated with anti-KRAS (Sigma-Aldrich, #SAB1404011) and anti-β-Actin monoclonal antibodies (Cell Signaling Technology, #3700) diluted in blocking buffer at 4° C. overnight per the manufacturer's recommendations. After washing 3 times, blots were incubated with appropriately labeled secondary antibodies for 1 hr at room temperature and washed again. Fluorescence imaging and quantitation was performed using a LI-COR Odyssey. Results was analyzed using GraphPad Prism 7 software. Compound degradation of was determined by the following equation and DC50 values (the concentration at which 50% of the maximal degradation of KRAS occurs) calculated using GraphPad Prism 7 software:
% Inhibition=100−(D−B)/(S−B)*100%. • S: Fluorescence intensity of cells with antibody • D: Fluorescence intensity of compound-treated cells with antibody • B: Fluorescence intensity of cells without antibody

[2] = system: MIA PaCa-2 human pancreatic carcinoma; test: MIA PaCa-2 CCK-8 proliferation assay; assay type: cell-based; settings: Homo sapiens, MIA PaCa-2, 72 h, MIA PaCa-2 cells
Summary of the method: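 Proliferation of mutant-KRAS(G12C) cells (2 copies in MIA PaCa-2, single copy in NCI-H358/NCI-H23) measured with CCK-8 after treatment across 20 μM–1.02 nM; inhibition expressed relative to vehicle-treated wells after subtracting no-cell background.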

KRAS(G12C) [3] = target: T1, KRAS(G12C); test: KRAS(G12C)/SOS1 homogeneous time-resolved fluorescence (HTRF) assay; set-up: purchased Cisbio 63ADK000CB16PEG; settings: absence of GTP, 4° C. for 3 hr, read-out: KRAS (G12C) binding
Summary of the method: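 Three-hour incubation at 4 °C of 3-fold compound dilutions (lowest 1.02 nM) with KRAS(G12C), SOS1 and detection reagents, GTP absent. Disruption of the KRAS(G12C)/SOS1 complex detected by time-resolved fluorescence.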

T1 sequence (P01116 1-188 isoform P01116-2 G12C): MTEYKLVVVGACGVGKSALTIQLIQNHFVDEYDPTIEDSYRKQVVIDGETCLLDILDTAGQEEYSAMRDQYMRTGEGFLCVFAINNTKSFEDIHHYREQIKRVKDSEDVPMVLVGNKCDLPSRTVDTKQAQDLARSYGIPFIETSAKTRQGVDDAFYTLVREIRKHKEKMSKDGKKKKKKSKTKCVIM

Structure (SMILES) | DC50 (KRAS(G12C) [1]) [nM] | EC50 [2] [nM] | IC50 (KRAS(G12C) [3]) [nM]
C=CC(=O)N1CCN(c2nc(OC[C@@H]3CC[C@H](CN4CCN(C(=O)C5CCN(Cc6ccc(-n7c(O)nnc7-c7cc(C)c(O)cc7O)cc6)CC5)CC4)N3C)nc3c2CCN(c2cccc4ccccc24)C3)C[C@@H]1CC#N [Compound 256, 2-[(2S)-4-(2-{[(2S,5R)-5-({4-[1-({4-[3-(2,4-dihydroxy-5-methylphenyl)-5-hydroxy-1,2,4-triazol-4-yl]phenyl}methyl)piperidine-4-carbonyl]piperazin-1-yl}methyl)-1-methylpyrrolidin-2-yl]methoxy}-7-(naphthalen-1-yl)-5H,6H,8H-pyrido[3,4-d]pyrimidin-4-yl)-1-(prop-2-enoyl)piperazin-2-yl]acetonitrile] | > 1000 | > 1000 | < 100
C=CC(=O)N1CCN(c2nc(OC[C@@H]3CC[C@H](CN4CCN(Cc5ccc(-n6c(O)nnc6-c6cc(C(C)C)c(O)cc6O)cc5)CC4)N3C)nc3c2CCN(c2cccc4ccc(F)c(Cl)c24)C3)C[C@@H]1CC#N [Compound 268, 2-[(2S)-4-[7-(8-chloro-7-fluoronaphthalen-1-yl)-2-{[(2S,5R)-5-{[4-({4-[3-(2,4-dihydroxy-5-isopropylphenyl)-5-hydroxy-1,2,4-triazol-4-yl]phenyl}methyl)piperazin-1-yl]methyl}-1-methylpyrrolidin-2-yl]methoxy}-5H,6H,8H-pyrido[3,4-d]pyramidin-4-yl]-1-(prop-2-enoyl)piperazin-2-yl]acetonitrile] | > 1000 | 100 to 1000 | < 100
C=CC(=O)N1CCN(c2nc(OC[C@@H]3C[C@H](N4CCC(C(=O)N5CCN(Cc6ccc(-n7c(O)nnc7-c7cc(C)c(O)cc7O)cc6)CC5)CC4)CN3C)nc3c2CCN(c2cccc4ccccc24)C3)C[C@@H]1CC#N [Compound 247, 2-[(2S)-4-(2-{[(2S,4S)-4-{4-[4-({4-[3-(2,4-dihydroxy-5-methylphenyl)-5-hydroxy-1,2,4-triazol-4-yl]phenyl}methyl)piperazine-1-carbonyl]piperidin-1-yl}-1-methylpyrrolidin-2-yl]methoxy}-7-(naphthalen-1-yl)-5H,6H,8H-pyrido[3,4-d]pyrimidin-4-yl)-1-(prop-2-enoyl)piperazin-2-yl]acetonitrile] | > 1000 | > 1000 | < 100
C=C(F)C(=O)N1CCN(c2nc(OC[C@@H]3CC[C@H](CN4CCN(Cc5ccc(-n6c(C(=O)NCC)nnc6-c6cc(C(C)C)c(O)cc6O)cc5)CC4)N3C)nc3c2CCN(c2cccc4ccccc24)C3)C[C@@H]1CC#N [Compound 287, 4-{4-[(4-{[(2R,5S)-5-[({4-[(3S)-3-(cyanomethyl)-4-(2-fluoroprop-2-enoyl)piperazin-1-yl]-7-(naphthalen-1-yl)-5H,6H,8H-pyrido[3,4-d]pyrimidin-2-yl}oxy)methyl]-1-methylpyrrolidin-2-yl]methyl}piperazin-1-yl)methyl]phenyl}-5-(2,4-dihydroxy-5-isopropylphenyl)-N-ethyl-1,2,4-triazole-3-carboxamide] | > 1000 | < 100 | 100 to 1000
C=CC(=O)N1CCN(c2nc(OC[C@@H]3CC[C@H](CN4CCN(C(=O)C5CCN(Cc6ccc(-n7c(C(=O)NCC)nnc7-c7cc(C(C)C)c(O)cc7O)cc6)CC5)CC4)N3C)nc3c2CCN(c2cccc4cccc(Cl)c24)C3)C[C@@H]1CC#N [Compound 240, 4-(4-{[4-(4-{[(2R,5S)-5-({[7-(8-chloronaphthalen-1-yl)-4-[(3S)-3-(cyanomethyl)-4-(prop-2-enoyl)piperazin-1-yl]-5H,6H,8H-pyrido[3,4-d]pyrimidin-2-yl]oxy}methyl)-1-methylpyrrolidin-2-yl]methyl}piperazine-1-carbonyl)piperidin-1-yl]methyl}phenyl)-5-(2,4-dihydroxy-5-isopropylphenyl)-N-ethyl-1,2,4-triazole-3-carboxamide] | 100 to 1000 | < 100 | < 100
C=CC(=O)N1CCN(c2nc(OC[C@@H]3C[C@@H](N(C)C(=O)C4CCN(Cc5ccc(-n6c(C(=O)NCC(F)(F)F)nnc6-c6cc(C(C)C)c(O)cc6O)cc5)CC4)CN3C)nc3c2CCN(c2cccc4cccc(Cl)c24)C3)C[C@@H]1CC#N [Compound 235, N-((3R,5S)-5-(((4-((S)-4-acryloyl-3-(cyanomethyl)piperazin-1-yl)-7-(8-chloronaphthalen-1-yl)-5,6,7,8-tetrahydropyrido[3,4-d]pyrimidin-2-yl)oxy)methyl)-1-methylpyrrolidin-3-yl)-1-(4-(3-(2,4-dihydroxy-5-isopropylphenyl)-5-((2,2,2-trifluoroethyl)carbamoyl)-4H-1,2,4-triazol-4-yl)benzyl)-N-methylpiperidine-4-carboxamide] | > 1000 | 100 to 1000 | 100 to 1000
C=CC(=O)N1CCN(c2nc(OC[C@@H]3C[C@H](N4CCN(Cc5ccc(-n6c(C(=O)NCC)nnc6-c6cc(C(C)C)c(O)cc6O)cc5)CC4)CN3C)nc3c2CCN(c2cccc4ccc(F)c(Cl)c24)C3)C[C@@H]1CC#N [Compound 278, 4-[4-({4-[(3S,5S)-5-({[7-(8-chloro-7-fluoronaphthalen-1-yl)-4-[(3S)-3-(cyanomethyl)-4-(prop-2-enoyl)piperazin-1-yl]-5H,6H,8H-pyrido[3,4-d]pyrimidin-2-yl]oxy}methyl)-1-methylpyrrolidin-3-yl]piperazin-1-yl}methyl)phenyl]-5-(2,4-dihydroxy-5-isopropylphenyl)-N-ethyl-1,2,4-triazole-3-carboxamide] | 100 to 1000 | 100 to 1000 | < 100
C=CC(=O)N1CCN(c2nc(OC[C@@H]3C[C@H](N4CCN(CC5CCN(Cc6ccc(-n7c(C(=O)NCC)nnc7-c7cc(C(C)C)c(O)cc7O)cc6)CC5)CC4)CN3C)nc3c2CCN(c2cccc4cccc(Cl)c24)C3)C[C@@H]1CC#N [Compound 276, 4-(4-{[4-({4-[(3S,5S)-5-({[7-(8-chloronaphthalen-1-yl)-4-[(3S)-3-(cyanomethyl)-4-(prop-2-enoyl)piperazin-1-yl]-5H,6H,8H-pyrido[3,4-d]pyrimidin-2-yl]oxy}methyl)-1-methylpyrrolidin-3-yl]piperazin-1-yl}methyl)piperidin-1-yl]methyl}phenyl)-5-(2,4-dihydroxy-5-isopropylphenyl)-N-ethyl-1,2,4-triazole-3-carboxamide] | > 1000 | < 100 | < 100
C=CC(=O)N1CCN(c2nc(OCCN3CCC(N4CCN(Cc5ccc(-n6c(O)nnc6-c6cc(C)c(O)cc6O)cc5)CC4)CC3)nc3c2CCN(c2cccc4cccc(Cl)c24)C3)C[C@@H]1CC#N [Compound 236, (S)-2-(1-acryloyl-4-(7-(8-chloronaphthalen-1-yl)-2-(2-(4-(4-(4-(3-(2,4-dihydroxy-5-methylphenyl)-5-hydroxy-4H-1,2,4-triazol-4-yl)benzyl)piperazin-1-yl)piperidin-1-yl)ethoxy)-5,6,7,8-tetrahydropyrido[3,4-d]pyrimidin-4-yl)piperazin-2-yl)acetonitrile] | > 1000 | > 1000 | < 100
C=CC(=O)N1CCN(c2nc(OC[C@@H]3C[C@H](N4CCC5(CCN(Cc6ccc(-n7c(C(=O)NCC)nnc7-c7cc(C(C)C)c(O)cc7O)cc6)CC5)CC4)CN3C)nc3c2CCN(c2cccc4cccc(Cl)c24)C3)C[C@@H]1CC#N [Compound 259, 4-[4-({9-[(3S,5S)-5-({[7-(8-chloronaphthalen-1-yl)-4-[(3S)-3-(cyanomethyl)-4-(prop-2-enoyl)piperazin-1-yl]-5H,6H,8H-pyrido[3,4-d]pyrimidin-2-yl]oxy}methyl)-1-methylpyrrolidin-3-yl]-3,9-diazaspiro[5.5]undecan-3-yl}methyl)phenyl]-5-(2,4-di hydroxy-5-isopropylphenyl)-N-ethyl-1,2,4-triazole-3-carboxamide] | < 100 | < 100 | < 100
